US20160295854A1, “COMPOSITION AND METHOD FOR EX-VIVO IMMUNOMODULATION AND/OR PRESERVATION OF ORGANS, METHODS AND USE” (UNIAO BRASILEIRA DE EDUCACAO E ASSISTENCIA , MANTENEDORA DA …, priority 2014, published 2016)

Experiments:
MARCH-I = MARCH-I mRNA in DCs by real time PCR; assay type: cell-based, mice (Mus musculus)
Protocol: (§1) The supernatants were collected and used for analyzing cytokine. The cells were further treated with 20 ng/ml of Rapamycin (Cell Signaling), 1 μg/ml of Cyclosporine A (Roche) or 20 ng/ml of IL-10 recombinant murine (R&D System) for 24 h and the total RNA was removed.
The total RNA was isolated from the DCs treated using the kit RNAeasy (Qiagen), according to the manufacturer instructions. The total purified RNA concentration was determined with the kit Qubit® RNA Assay Kit (Invitrogen), read in the Qubit® Fluorometer (Invitrogen). 50 ng of the RNA had reverse transcriptase with 100 U of Sensiscript (Qiagen). DNA concentrations were determined with the kit Qubit® dsDNA HS Assay (Invitrogen), read in the Qubit® Fluorometer (Invitrogen). In a final volume of 10 μL, 8 ng of cDNA were applied using some assays Taqman® Gene Expression (Applied Biosystems): IL10 (Mm00439614_m1), March1 (Mm00613524_m1) and β-actin (4352933E), according to the manufacturer recommendations.
The quantitative real time PCR was performed in the instrument StepOne™ Real-Time PCR System (Applied Biosystems). The relative levels of mRNA were calculated according to the comparative method of Ct, described by […] & LIVAK (2008). The β-actin constituent gene was used as setter. Non-treated DCs served as reference for OVA or Hsp70-treated DCs.
(§2) After that, IL-10 mRNA levels were analyzed by Real-time PCR. The β-actin was used as a setter. The IL-10 concentration was measured in the cultures supernatant by flow cytometry. […] (C) As in A, however the MARCH-I mRNA levels were analyzed by Real-time PCR. […] DCs IL-10 KO were also treated with Recombinant IL-10. All treatments were performed for 24 h and MARCH-I mRNA levels were analyzed by Real-time PCR. […] After this period, grafts were sutured in the BALB/c animals' back and the acceptance was daily monitored. Graphs expressed on average ±SEM. *, p<0.05; **, p<0.01; ***, […]. n=3-5 mice per group. Representative results of 3 independent experiments.
After this period, the MARCH-I expression increase was analyzed by Real-time PCR.

recipient DCs = experiment: Indirect alloantigen presentation by recipient DCs (Y-Ae antibody); assay type: in vivo, mice (Mus musculus); settings: BALB/c grafts in B6 recipients; vs OVA
Protocol: Subsequently, the alloantigens presentation was analyzed by the recipient DCs using the antibody Y-Ae. This antibody recognizes a peptide (Eα52-68) expressed in BALB/c animals bound in the MHC II I-A^b molecule (expressed in the B6 animals).

[1] = test system: cutaneous allograft (B6 donor skin in BALB/c recipients); experiment: Cutaneous allograft model, graft immersion followed by topic application; assay type: in vivo, mice (Mus musculus)
From the text: That is, animals that received grafts treated with Hsp70 receive the local application of a Hsp70 solution and the same for OVA.
After this, the grafts were sutured in BALB/c (I-A^d) animals' back. […] The animals were daily monitored. (A) Schematic representation of the treatment strategy used in the experiment. (B) Photographic record of the clinical progression of the acute rejection in groups Hsp70 and OVA. […] Data achieved from previous experiments.

MHC II = MHC II (I-A^b) expression in DCs isolated from skin draining lymph nodes; assay type: cell-based, mice (Mus musculus)
Protocol: CD11c+ cells were purified from lymph nodes that drain mice skin antigens C57Bl/6 WT or TLR2 KO, and 129Sv/Ev WT or IL-10 KO. The animals were sacrificed and the axial, brachial and inguinal lymph nodes were removed. These organs were macerated in a nylon screen with a mean that has D Collagenase (Roche). The cell suspension achieved was marked with the magnetic beads conjugated with an anti-CD11c antibody (N418) (Miltenyi Biotech) for 15 min. After being washed, the CD11c+ cells were purified by positive selecting using the MACS MS (Miltenyi Biotech) separation columns, according to the manufacturer instructions. The cells purity purified was controlled by flow cytometry, indicating a purity of 90% CD11c+ cells in the positive fraction. Therefore, the cells were grown in 96-well plates in serum free mean AIM-V® (Gibco).
as §1
For analyzing the migration and activation of the DCs subtypes, the cells were marked for I-A^b (AF6-120.1), CD11c (HL3), CD11b (M1/70), CD45R/B220 (RA3-6B2), CD103 (M290), CCR7 (CD197-4B12), CD80 (16-10A1), CD86 (GL1) antibodies achieved from BD Biosciences; and Langerin (CD207—eBioRMUL.2) from eBioscience.
After this period, the expression of I-A^b in the DCs was analyzed by flow cytometry.
(A) Analysis strategy for DCs subtypes present in the mice recipients DNL. […] After this period, the expression of I-A^b was analyzed in the DCs CD103+. Graphs expressed on average ±SEM. **, p<0.01; ***, […]. n=3 mice per group. Representative results of 3 independent experiments.
as §2
The β-actin was used as setter. […] (C) Representative graphs and percentages of the CD11c+ I-Ab^hi, CD11c+I-Ab^int and CD11c+I-Ab^low cells of DCs isolated from LNs draining skin antigens of WT animals or TLR2 KO. […] After this period, the treated grafts were sutured in the BALB/c animals' back and the acceptance was daily monitored. […]

“Hsp70: recombinant Mycobacterium tuberculosis Hsp70 (DnaK) produced in Escherichia coli BL21, LPS removed” was tested, and the “MARCH-I mRNA levels in DCs IL-10 KO (FIG. 11 D)” value (MARCH-I; DCs from IL-10 knockout animals, 24 h, compared with DCs WT) was “did not present an increase”, the “increase in the MARCH-I mRNA (FIG. 11 C)” value (MARCH-I; DCs isolated from LNs, 24 h) was 20 times and the “MARCH-I induction on DCs regarding the basal medium (FIG. 24)” value (MARCH-I; lymph node DCs, 24 hours, Hsp70 30 μg/mL, Rapamycin 20 ng/ml, Cyclosporine A 1 μg/ml, IL-10 20 ng/ml) was “only treatment able to induce MARCH-I”. The “antigens presentation levels by recipient DCs, Y-Ae (FIG. 6 D)” value (recipient DCs) was “no difference”, the “graft survival, immersion plus topic application until day 7 (FIG. 18)” value ([1]; compared to animals treated with OVA) was “much bigger” and the Survival median ([1]; group '- 1 day') was 17.0 days. For the same substance, the “MHC II expression in DCs isolated from skin draining lymph nodes (FIG. 3)” value (MHC II; 24 h, vs OVA) was “increase in the number of DCs expressing intermediate or low levels of MHC II”, the “MHC II expression inhibition in DCs TLR2 KO (FIG. 12 C)” value (MHC II; DCs isolated from LNs of WT or TLR2 KO) was “dependent on TLR2” and the “reduction of MHC II expression in IL-10 KO DCs (FIG. 11 B)” value (MHC II; DCs of knockout animals for IL-10) was “not possible to note this phenomenon”. The “MHC II expression in DCs CD103+ isolated from the lymph nodes (FIG. 9 C)” value (MHC II; in vitro, 30 μg/ml, 24 h) was “reduce in vitro the MHC II expression”.
